In brackets after ≈: the same amount, converted by molar mass. Like-named read-outs stand apart in the source and are kept apart here. One block for each molecule: values may come before it.
Legend:
Assay type in all cases: cell-based
[1] = test system: methicillin-resistant S. aureus clinical isolate; assay: MIC, clinical isolate of methicillin-resistant S. aureus; conditions: Staphylococcus aureus, read-out: MIC S. aureus
Method: (§1) All test compounds were assayed in a micro-dilution broth format. Stock solutions were made by serially diluting the compounds using autoclaved millipore water or broth media. The antibacterial activity of the compounds was determined against methicillin-sensitive S. aureus (MSSA), methicillin-resistant S. aureus (MRSA), vancomycin-intermediate-resistant S. aureus (VISA), vancomycin-sensitive E. faecium (VSE) and vancomycin-resistant E. faecium (VRE). Bacteria, to be tested, were grown for about 10 h in the suitable media, MSSA, MRSA and VISA were grown in yeast-dextrose broth (about 1 g of beef extract, about 2 g of yeast extract, about 5 g of peptone and about 5 g of NaCl in about 1000 mL of sterile distilled water (pH-7)). For solid media, about 5% agar was used along with above mentioned composition. VSE and VRE were cultured in brain heart infusion broth (Himedia). The bacterial samples were freeze dried and stored at −80° C. About 5 μL of these stocks were added to about 3 mL of the nutrient broth and the culture was grown for about 6 h at about 37° C. prior to the experiments. This 6 h grown culture gives about 10^9 cfu/mL and this was determined by spread plating method. The 6 h grown culture was diluted to give effective cell concentration of about 10^5 cfu/mL which was then used for determining MIC. Compounds were serially diluted, in sterile water (2 fold dilution is employed) in a way that the working concentration was about 10 μM for MSSA, MRSA, and VSE while for VRE and VISA it was about 100 μM. About 50 μL of these serial dilutions were added to the wells of 96 well plate followed by the addition of about 150 μL of bacterial solution. The plates were then incubated at about 37° C., 150 rpm in the incubator and O.D at 600 nm was recorded at an interval of about 10 h and 24 h using TECAN (Infinite series, M200 pro) Plate Reader. Each concentration had triplicate values and the whole experiment was done at least twice and the MIC value was determined by taking the average of triplicate. O. D. values for each concentration and plotting it against concentration. The data was then subjected to sigmoidal fitting. From the curve the MIC value was determined, as the point in the curve where the O. D. was similar to that of control having no bacteria.

[2] = test system: methicillin-resistant S. epidermidis clinical isolate; assay: MIC, clinical isolate of methicillin-resistant S. epidermidis; conditions: Staphylococcus epidermidis, read-out: MIC S. epidermidis
[3] = test system: Vancomycin-resistant E. faecium (VanA, ATCC 51559); assay: MIC, micro-dilution broth, VRE (VanA); conditions: E. faecium ATCC 51559, read-out: MIC VRE (VanA)
Method: as §1

[4] = test system: methicillin-resistant S. haemolyticus clinical isolate; assay: MIC, clinical isolate of methicillin-resistant S. haemolyticus; conditions: Staphylococcus haemolyticus; clinical isolate, methicillin-resistant; read-out: MIC S. haemolyticus
[5] = test system: Methicillin-sensitive S. aureus (MTCC 737); assay: MIC, micro-dilution broth, MSSA; conditions: MTCC 737, read-out: MIC MSSA
Method: as §1

[6] = test system: Vancomycin-sensitive E. faecium (ATCC 19634); assay: MIC, micro-dilution broth, VSE; conditions: read-out: MIC VSE
Method: as §1

[7] = test system: Methicillin-resistant S. aureus (ATCC 33591); assay: MIC, micro-dilution broth, MRSA; conditions: ATCC 33591, read-out: MIC MRSA
Method: as §1

[8] = test system: Vancomycin-resistant E. faecalis (VanA, ATCC 51575); assay: MIC, micro-dilution broth, VRE (VanB); conditions: Enterococcus faecalis; E. faecalis ATCC 51575; read-out: MIC VRE (VanB)
[9] = test system: Vancomycin intermediate resistant S. aureus; assay: MIC, micro-dilution broth, VISA; conditions: read-out: MIC VISA
Method: as §1

[10] = Enterococcus faecium, ATCC19634, ATCC 19634

Compound: CCCCCCCCN[C@]1(C)C[C@H](OC2C(O)[C@@H](O)C(CO)O[C@@H]2Oc2c3cc4cc2Oc2ccc(cc2Cl)[C@@H](O)[C@@H](NC(=O)[C@@H](CC(C)C)NC)C(=O)N[C@@H](CC(N)=O)C(=O)N[C@H]4C(=O)N[C@H]2C(=O)N[C@H](C(=O)N[C@H](C(=O)NCCCNC(=O)[C@H](O)[C@@H](O)[C@H](OC4OC(CO)C(O)C(O)C4O)[C@H](O)CO)c4cc(O)cc(O)c4-c4cc2ccc4O)[C@H](O)c2ccc(c(Cl)c2)O3)OC(C)[C@@H]1O (stereo partly drawn) [Compound 17]
MIC [1]: 0.2 µM (≈ 0.392 µg/mL)
MIC [2]: 0.3 µM (≈ 0.587 µg/mL)
MIC ([3]; Enterococcus faecium): 2 µM (≈ 3.92 µg/mL)
MIC [4]: 0.4 µM (≈ 0.783 µg/mL)
MIC ([5]; Staphylococcus aureus): 0.2 µM (≈ 0.392 µg/mL)
MIC [6, 10]: 0.2 µM (≈ 0.392 µg/mL)
MIC ([7]; Staphylococcus aureus): 0.3 µM (≈ 0.587 µg/mL)
MIC [8]: 6.2 µM (≈ 12.1 µg/mL)
MIC ([9]; Staphylococcus aureus, VISA): 0.31 µM (≈ 0.607 µg/mL)

Compound: CN[C@H](CC(C)C)C(=O)N[C@H]1C(=O)N[C@@H](CC(N)=O)C(=O)N[C@H]2C(=O)N[C@H]3C(=O)N[C@H](C(=O)N[C@H](C(=O)NCCOC4OC(CO)C(O)C(O)C4O)c4cc(O)cc(O)c4-c4cc3ccc4O)[C@H](O)c3ccc(c(Cl)c3)Oc3cc2cc(c3O[C@H]2OC(CO)[C@H](O)C(O)C2O[C@H]2C[C@@](C)(N)[C@H](O)C(C)O2)Oc2ccc(cc2Cl)[C@H]1O (stereo partly drawn) [Compound 1]
MIC ([3]; Enterococcus faecium): > 100 µM
MIC ([5]; Staphylococcus aureus): 1.4 µM (≈ 2.32 µg/mL)
MIC [6, 10]: 0.6 µM (≈ 0.993 µg/mL)
MIC ([7]; Staphylococcus aureus): 1.2 µM (≈ 1.99 µg/mL)
MIC ([9]; Staphylococcus aureus, VISA): 2.4 µM (≈ 3.97 µg/mL)

Results, then the molecule that gave them:

MIC ([3]; Enterococcus faecium): 25 µM (≈ 39 µg/mL)
MIC ([5]; Staphylococcus aureus): 0.3 µM (≈ 0.468 µg/mL)
MIC [6, 10]: 0.4 µM (≈ 0.625 µg/mL)
MIC ([7]; Staphylococcus aureus): 0.3 µM (≈ 0.468 µg/mL)
MIC [8]: 12.5 µM (≈ 19.5 µg/mL)
MIC ([9]; Staphylococcus aureus, VISA): 0.4 µM (≈ 0.625 µg/mL)
Compound: CCCCCCCCN[C@]1(C)C[C@H](OC2C(O)[C@@H](O)C(CO)O[C@@H]2Oc2c3cc4cc2Oc2ccc(cc2Cl)[C@@H](O)[C@@H](NC(=O)[C@@H](CC(C)C)NC)C(=O)N[C@@H](CC(N)=O)C(=O)N[C@H]4C(=O)N[C@H]2C(=O)N[C@H](C(=O)N[C@H](C(=O)O)c4cc(O)cc(O)c4-c4cc2ccc4O)[C@H](O)c2ccc(c(Cl)c2)O3)OC(C)[C@@H]1O (stereo partly drawn) [Compound 15]

MIC ([3]; Enterococcus faecium): 14 µM (≈ 22.3 µg/mL)
MIC ([5]; Staphylococcus aureus): 0.3 µM (≈ 0.477 µg/mL)
MIC [6, 10]: 0.2 µM (≈ 0.318 µg/mL)
MIC ([7]; Staphylococcus aureus): 0.3 µM (≈ 0.477 µg/mL)
MIC [8]: 6.2 µM (≈ 9.86 µg/mL)
MIC ([9]; Staphylococcus aureus, VISA): 0.32 µM (≈ 0.509 µg/mL)
Compound: CCCCCCCCCCN[C@]1(C)C[C@H](OC2C(O)[C@@H](O)C(CO)O[C@@H]2Oc2c3cc4cc2Oc2ccc(cc2Cl)[C@@H](O)[C@@H](NC(=O)[C@@H](CC(C)C)NC)C(=O)N[C@@H](CC(N)=O)C(=O)N[C@H]4C(=O)N[C@H]2C(=O)N[C@H](C(=O)N[C@H](C(=O)O)c4cc(O)cc(O)c4-c4cc2ccc4O)[C@H](O)c2ccc(c(Cl)c2)O3)OC(C)[C@@H]1O (stereo partly drawn) [Compound 8]

MIC [3]: >100 µM
MIC [5]: 1.0 µM (≈ 1.83 µg/mL)
MIC ([6]; ATCC 19634): 0.5 µM (≈ 0.916 µg/mL)
MIC [7]: 1.0 µM (≈ 1.83 µg/mL)
MIC [9]: 0.99 µM (≈ 1.81 µg/mL)
Compound: CN[C@H](CC(C)C)C(=O)N[C@H]1C(=O)N[C@@H](CC(N)=O)C(=O)N[C@H]2C(=O)N[C@H]3C(=O)N[C@H](C(=O)N[C@H](C(=O)NCCCNCC(O)C(O)C(OC4OC(CO)C(O)C(O)C4O)C(O)CO)c4cc(O)cc(O)c4-c4cc3ccc4O)[C@H](O)c3ccc(c(Cl)c3)Oc3cc2cc(c3O[C@H]2OC(CO)[C@H](O)C(O)C2O[C@H]2C[C@@](C)(N)[C@H](O)C(C)O2)Oc2ccc(cc2Cl)[C@H]1O (stereo partly drawn) [Compound 6]

MIC ([3]; Enterococcus faecium): 36 µM (≈ 66.4 µg/mL)
MIC ([5]; Staphylococcus aureus): 0.3 µM (≈ 0.554 µg/mL)
MIC [6, 10]: 0.4 µM (≈ 0.738 µg/mL)
MIC ([7]; Staphylococcus aureus): 0.38 µM (≈ 0.701 µg/mL)
MIC ([9]; Staphylococcus aureus, VISA): 0.3 µM (≈ 0.554 µg/mL)
Compound: CN[C@H](CC(C)C)C(=O)N[C@H]1C(=O)N[C@@H](CC(N)=O)C(=O)N[C@H]2C(=O)N[C@H]3C(=O)N[C@H](C(=O)N[C@H](C(=O)NCCCNC(=O)[C@H](O)[C@@H](O)[C@H](OC4OC(CO)C(O)C(O)C4O)[C@H](O)CO)c4cc(O)cc(O)c4-c4cc3ccc4O)[C@H](O)c3ccc(c(Cl)c3)Oc3cc2cc(c3O[C@H]2OC(CO)[C@H](O)C(O)C2O[C@H]2C[C@@](C)(N)[C@H](O)C(C)O2)Oc2ccc(cc2Cl)[C@H]1O (stereo partly drawn) [Compound 4]

— patent US20160303184A1, “VANCOMYCIN-SUGAR CONJUGATES AND USES THEREOF” (JAWAHARLAL NEHRU CENTRE FOR ADVANCED SCIENTIFIC RESEARCH …, priority 2013, published 2016)
